Here are results for eight compounds from ChEMBL document CHEMBL6078699, “Constrained β-Hairpins Targeting the EphA4 Ligand Binding Domain” (J Med Chem, 2024).

Each structure is given as a SMILES string. Active and inactive are the calls of the source. The rule behind the calls is not given here. Numbered stars: 1 amine (or outer) side, 2 acyl side, 3 side chain; on linkers, the order of the positions; unused ones are H or OH. Square brackets hold non-standard residues; d marks the D form. Peptide text beside a SMILES is read from it. Azetidine3carboxylic = O=C(C1CN([*:1])C1)[*:2]; βPro(3R) = O=C([C@@H]1CCN([*:1])C1)[*:2]; βPro(3S) = O=C([C@H]1CCN([*:1])C1)[*:2]; X2 = O=C([C@H]1CCCN([*:1])C1)[*:2]; βAla = NCCC(=O)O

Experiment [1] addresses Ephrin type-A receptor 4 (Homo sapiens) (UniProt P54764). The experiment in a line: Binding affinity to EphA4-LBD (unknown origin) at 40 uM by isothermal titration calorimetry. A general note: Isothermal titration calorimetry measures the heat released or taken up as one component is titrated into another.
Experiment [2] addresses Ephrin type-A receptor 4 (Mus musculus) (UniProt Q03137). Kind of experiment: Induction of EphA4 phosphorylation in C57BL/6 mouse Primary cortical neuron at 1 to 10 uM incubated for 30 mins by immunoprecipitation based Western blot analysis. It counts as cell-based. Conditions: dose 1-10 µM. (In general: Immunoblotting shows a protein as a band on a membrane.)

Sequence of Ephrin type-A receptor 4 (Homo sapiens) (P54764 whole entry, the tested form may be a part): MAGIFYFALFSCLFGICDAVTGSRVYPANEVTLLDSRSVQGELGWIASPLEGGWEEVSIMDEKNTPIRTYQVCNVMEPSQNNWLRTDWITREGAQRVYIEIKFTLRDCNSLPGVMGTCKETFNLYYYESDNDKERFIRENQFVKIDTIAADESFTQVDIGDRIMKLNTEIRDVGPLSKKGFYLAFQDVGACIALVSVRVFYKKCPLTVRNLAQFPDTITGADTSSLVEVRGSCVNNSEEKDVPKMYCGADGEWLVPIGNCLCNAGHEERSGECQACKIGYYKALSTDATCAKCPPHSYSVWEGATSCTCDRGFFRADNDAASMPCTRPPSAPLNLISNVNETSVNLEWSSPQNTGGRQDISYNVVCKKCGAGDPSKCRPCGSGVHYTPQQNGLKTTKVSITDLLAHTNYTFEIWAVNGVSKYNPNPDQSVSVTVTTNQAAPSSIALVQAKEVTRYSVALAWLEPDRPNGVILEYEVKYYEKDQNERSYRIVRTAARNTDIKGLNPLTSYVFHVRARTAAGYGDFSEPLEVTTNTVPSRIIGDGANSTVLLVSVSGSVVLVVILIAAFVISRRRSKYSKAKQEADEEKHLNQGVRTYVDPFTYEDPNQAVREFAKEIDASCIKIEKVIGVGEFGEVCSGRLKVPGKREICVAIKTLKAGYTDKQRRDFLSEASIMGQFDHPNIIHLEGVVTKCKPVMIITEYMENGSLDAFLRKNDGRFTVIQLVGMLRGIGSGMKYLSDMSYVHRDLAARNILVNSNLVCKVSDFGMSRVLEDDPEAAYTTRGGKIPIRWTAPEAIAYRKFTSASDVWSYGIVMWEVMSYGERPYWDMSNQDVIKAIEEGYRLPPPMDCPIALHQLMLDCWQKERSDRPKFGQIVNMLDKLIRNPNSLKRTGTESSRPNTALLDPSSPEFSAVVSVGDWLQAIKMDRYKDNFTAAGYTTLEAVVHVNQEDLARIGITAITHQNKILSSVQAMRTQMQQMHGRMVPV
Sequence of Ephrin type-A receptor 4 (Mus musculus) (Q03137 whole entry): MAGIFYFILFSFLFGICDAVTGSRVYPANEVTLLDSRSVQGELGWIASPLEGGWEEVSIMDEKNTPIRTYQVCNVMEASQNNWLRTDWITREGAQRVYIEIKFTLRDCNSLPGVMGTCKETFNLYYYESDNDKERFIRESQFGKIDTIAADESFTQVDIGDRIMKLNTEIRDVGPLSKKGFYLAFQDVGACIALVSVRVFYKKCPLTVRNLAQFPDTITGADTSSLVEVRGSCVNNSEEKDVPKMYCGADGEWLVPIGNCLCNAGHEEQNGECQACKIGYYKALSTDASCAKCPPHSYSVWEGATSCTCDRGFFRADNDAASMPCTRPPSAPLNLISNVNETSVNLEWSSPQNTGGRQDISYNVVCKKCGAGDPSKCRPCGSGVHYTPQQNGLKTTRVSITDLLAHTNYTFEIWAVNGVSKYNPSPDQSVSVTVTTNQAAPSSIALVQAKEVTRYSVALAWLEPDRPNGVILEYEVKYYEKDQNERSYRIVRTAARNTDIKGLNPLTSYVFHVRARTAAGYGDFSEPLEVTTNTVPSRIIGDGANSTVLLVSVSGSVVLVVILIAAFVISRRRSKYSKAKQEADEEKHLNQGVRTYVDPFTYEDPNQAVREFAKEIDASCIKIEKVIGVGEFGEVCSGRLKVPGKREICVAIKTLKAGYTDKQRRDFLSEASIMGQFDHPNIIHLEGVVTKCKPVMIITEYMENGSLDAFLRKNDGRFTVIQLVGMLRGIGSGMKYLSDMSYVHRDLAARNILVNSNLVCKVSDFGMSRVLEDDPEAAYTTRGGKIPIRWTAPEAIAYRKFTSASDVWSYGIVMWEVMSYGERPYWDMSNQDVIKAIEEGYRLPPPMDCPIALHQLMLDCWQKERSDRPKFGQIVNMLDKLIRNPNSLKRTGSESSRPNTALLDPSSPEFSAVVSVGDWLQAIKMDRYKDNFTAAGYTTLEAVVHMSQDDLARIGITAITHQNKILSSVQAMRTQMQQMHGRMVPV

Turning to `CC(C)[C@H](NC(=O)[C@H](C)NC(=O)[C@H](Cc1ccc(O)cc1)NC(=O)[C@@H]1CCCN1C(=O)CCN)C(=O)N[C@@H](Cc1ccc(O)cc1)C(=O)N[C@@H](CCCNC(=N)N)C(=O)N[C@H]1CC[C@@H]1C(=O)N[C@H](CO)C(=O)N[C@@H](Cc1c[nH]c2ccccc12)C(=O)N[C@@H](CO)C(=O)N[C@@H](C)C(N)=O`, the result in experiment [1] was inactive.

On to `CC(C)[C@H](NC(=O)[C@H](C)NC(=O)[C@H](Cc1ccc(O)cc1)NC(=O)[C@@H]1CCCN1C(=O)CCN)C(=O)N[C@@H](Cc1ccc(O)cc1)C(=O)N[C@@H](CCCNC(=N)N)C(=O)N1CC(C(=O)N[C@@H](CO)C(=O)N[C@@H](Cc2c[nH]c3ccccc23)C(=O)N[C@@H](CO)C(=O)N[C@@H](C)C(N)=O)C1` (H-[βAla]PYAVYR[Azetidine3carboxylic]SWSA-NH2), for which the result in experiment [1] was inactive.

For the compound `CC(C)[C@H](NC(=O)[C@H](C)NC(=O)[C@H](Cc1ccc(O)cc1)NC(=O)[C@@H]1CCCN1C(=O)CCN)C(=O)N[C@@H](Cc1ccc(O)cc1)C(=O)N[C@@H](CCCNC(=N)N)C(=O)N1CC[C@@H](C(=O)N[C@@H](CO)C(=O)N[C@@H](Cc2c[nH]c3ccccc23)C(=O)N[C@@H](CO)C(=O)N[C@@H](C)C(N)=O)C1` (H-[βAla]PYAVYR[βPro(3R)]SWSA-NH2), the outcome in experiment [1] was inactive.

Regarding `CC(C)[C@H](NC(=O)[C@H](C)NC(=O)[C@H](Cc1ccc(O)cc1)NC(=O)[C@@H]1CCCN1C(=O)CCN)C(=O)N[C@@H](Cc1ccc(O)cc1)C(=O)N[C@@H](CCCNC(=N)N)C(=O)N1CC[C@@H]1C(=O)N[C@@H](CO)C(=O)N[C@@H](Cc1c[nH]c2ccccc12)C(=O)N[C@@H](CO)C(=O)N[C@@H](C)C(N)=O`, the outcome in experiment [1] was inactive.

Take `CC(C)[C@H](NC(=O)[C@H](C)NC(=O)[C@H](Cc1ccc(O)cc1)NC(=O)[C@@H]1CCCN1C(=O)CCN)C(=O)N[C@@H](Cc1ccc(O)cc1)C(=O)N[C@@H](CCCNC(=N)N)C(=O)N1CCC[C@H](C(=O)N[C@@H](CO)C(=O)N[C@@H](Cc2c[nH]c3ccccc23)C(=O)N[C@@H](CO)C(=O)N[C@@H](C)C(N)=O)C1` (H-[βAla]PYAVYR[X2]SWSA-NH2): in experiment [1], the result was inactive.

As for `CC(C)[C@H](NC(=O)[C@H](C)NC(=O)[C@H](Cc1ccc(O)cc1)NC(=O)[C@@H]1CCCN1C(=O)CCN)C(=O)N[C@@H](Cc1ccc(O)cc1)C(=O)N[C@@H](CCCNC(=N)N)C(=O)N1CC[C@H](C(=O)N[C@@H](CO)C(=O)N[C@@H](Cc2c[nH]c3ccccc23)C(=O)N[C@@H](CO)C(=O)N[C@@H](C)C(N)=O)C1` (H-[βAla]PYAVYR[βPro(3S)]SWSA-NH2), the result in experiment [1] was inactive.

Turning to `CC(C)[C@H](NC(=O)[C@H](C)NC(=O)[C@H](Cc1ccc(O)cc1)NC(=O)[C@@H]1CCCN1C(=O)CCN)C(=O)N[C@@H](Cc1ccc(O)cc1)C(=O)N[C@@H](CCCNC(=N)N)C(=O)N1CC[C@H]1C(=O)N[C@@H](CO)C(=O)N[C@@H](Cc1c[nH]c2ccccc12)C(=O)N[C@@H](CO)C(=O)N[C@@H](C)C(N)=O`, in experiment [1], the outcome was inactive.

`CC(C)[C@H](NC(=O)[C@H](CS)NC(=O)[C@H](Cc1ccc(O)cc1)NC(=O)[C@@H]1CCCN1C(=O)CCN)C(=O)N[C@@H](Cc1ccc(O)cc1)C(=O)N[C@@H](CCCNC(=N)N)C(=O)NCCC(=O)N[C@@H](CO)C(=O)N[C@@H](Cc1cc2ccccc2[nH]1)C(=O)N[C@@H](CO)C(=O)N[C@@H](CS)C(N)=O`: the outcome in experiment [2] was inactive.
